Measured values reported in US10705094B2, “TNF receptor signaling modulator assay” (UCB Biopharma SRL, priority 2015, dated 2020).

Experiments:
[1] = target: T1, TNFα (Homo sapiens, UniProt P01375); test: L929 murine fibrosarcoma cell-killing (neutralisation) assay; assay type: cell-based, mouse; set-up: host or cells: added to L929 murine fibrosarcoma cells (ECACC, 85011425); settings: L929 cells; read-out: IC50 (inhibition of cell killing activity of human TNFα)
Experimental: The L929 neutralisation assays were carried out using the protocol disclosed in Baarsch M J J et al (Immunol Methods 1991; 140: 15-22) and Galloway C J et al J (Immunol Methods 1991; 140: 37-43).
Briefly, L929 cells (ECACC, 85011425) were cultured in culture medium consisting of RPMI 1640 (Gibco) containing 10% FCS (PAA), 2 mM glutamine (Gibco), 50 U/ml penicillin (Gibco) and 50 μg/ml streptomycin (Gibco). When they were subcultured, the cells were washed three times with 10 mL Dulbecco's phosphate-buffered saline without calcium and magnesium (Gibco) and 3 ml of trypsin-EDTA (Gibco) was then added for 2 minutes to remove the cells from the flask. Culture medium was added to neutralise the trypsin and the cells pipetted up and down to remove any clumps.
The L929 cells were split 1/2 or 1/3 the day before use and cultured for a further 24 hours. The flasks were then trypsinised as above and 2×10^4 cells in 100 μl were added per well of a 96 well flat-bottomed plate (Becton Dickinson). The plates were cultured for 24 hours before the assay was set up.
Serial dilutions were made from DMSO stocks of the compounds.
The assay medium was the same as culture medium but also contained 1 μg/ml actinomycin D (Sigma). The medium was flicked off the plates and the assay samples plus TNFα, standards and controls were added in 100 μl volumes in duplicate. Plates were incubated for a further 16 hours and then 10 μl per well of a 5 mg/ml methylthiazoletetrazolium (MTT; Sigma) solution in culture medium was added for a further 4 hours. The reaction was stopped by the addition of 100 μl of solubilisation buffer containing 20% sodium dodecyl sulphate (SDS, BDH) dissolved in 50% dimethyl formamide (DMF; BDH) and 50% deionised water.
After overnight incubation at 37° C. to allow the dye to dissolve, the plates were read on a Multiskan EX plate reader (Labsystem) at 570 nm with subtraction at 630 nm. Data were analysed using the Genesis software package.

[2] = target: T1, TNFα; test: Fluorescence polarization assay, competition with the compound of formula (4) for TNFα; settings: TNFα 50 nM, compound of formula (4) 10 nM, 5% DMSO; read-out: IC50 (inhibition of binding of the compound of formula (4) to TNFα)
Experimental: The final concentrations of TNFα and the compound of formula (4) were 50 nM and 10 nM respectively in a total assay volume of 25 μl. Plates were read on an Analyst HT reader. An IC50 was calculated using xlfit (4 parameter logistic model) in Activity Base.
C87 was preincubated with TNFα for 1 hour prior to assay against the fluorescent compound (probe). Competition with the fluorescent compound either directly (binding at the same site) or indirectly (disrupting TNF) is detected by a reduction in FP.

[3] = target: T1, TNFα; test: Surface plasmon resonance kinetics of compound binding to immobilised TNFα (Biacore T100/T200)
Experimental: Surface plasmon resonance was used to measure the association rate, the dissociation rate and the affinity of the compounds of formulae (1) and (2) for TNFα (FIGS. 13A and B). For the purpose of this study a Biacore T100/T200 was used.
TNFα was immobilised at pH5 to a level of 5-8 KRU onto a CMS sensor in HBS-P buffer (10 mM HEPES pH 7.4, 0.15 M NaCl, 0.005% Surfactant P20, BIAcore, GE Healthcare). The TNFα was then equilibrated in HBS-P with 5% DMSO for at least 5 hours. The samples were diluted from 10 mM stocks into DMSO matched buffer and left to solubilise for at least 5 hours. The flow rate was 30 μL/min.
This assay was performed by adding 4 or 5 concentrations of compound starting from a highest concentration of 25 μM for compound of formula (1) and 1 μM for compound of formula (2) and then serially diluting this sample. Background subtraction binding curves were analysed using the BIAevaluation software following standard procedures. Binding, affinity and kinetic parameters were determined using Biacore software. The kinetic data were fitted using the levenberg marquardt algorithm.

[4] = target: T2, TNFα binding to the TNF receptor (TNFR-ECD) (Homo sapiens, UniProt P01375); test: Meso Scale Discovery (MSD) assay of TNFα binding to plate-coated TNFR-ECD; settings: single point assay, 100 μM compound, 5% final v/v DMSO
T2 construct: purchased R&D Systems
Experimental: 384 well uncoated plates (standard binding) Meso Scale Discovery plates (MSD) were coated overnight with the extracellular domain of TNFR (TNFR-ECD) (10 μl, 1 ug/mL in PBS). To ensure even distribution plates were centrifuged at 1000 rpm for 2 minutes. The plates were then sealed and stored at +4° C. overnight.
The wells of the plates were then washed three times in 50 μl phosphate buffered saline pH 6.5 (PB) with 0.05% Tween 20 (wash buffer), and then blocked with 50 μl 2% BSA. The plates were then incubated at room temperature on a shaker (600 rpm) for 2 hours. After this incubation plates were washed (3×50 μl wash buffer per well).
During the blocking incubation, compounds of formulae (1) and (2) were pre-incubated with TNF (R&D Systems) prior to addition to the pre-blocked and washed MSD plates. For a single point assay as shown in FIG. 3A the compounds were assayed at a final concentration of 100 μM (5% final v/v DMSO).
Pre-diluted compounds of formulae (1) and (2) were added at a ratio of 1:1 to 4 ng/mL TNF (final concentration 2 ng/ml), and then incubated at room temperature on a shaker 600 rpm for 1 hour.
10 μl of pre-incubated mixtures of compound of formulae (1) or (2) with TNFα were added to the prepared MSD plate and incubated at room temperature on a shaker for 1 hour.
The plates were then washed with wash buffer (3×50 μl per well). Sulfo-tagged anti-TNF polyclonal antibody was then added to each well and the plates incubated for a further 1.5 hours at room temperature on a shaker.
The plates were then washed (3×50 μl wash buffer per well), followed by the addition of 50 μl MSD Read buffer T plus surfactant (diluted 1 in 2 in H2O) and read on a SECTOR Imager 6000.
For single point assays percentage inhibition was calculated using a control sample without compound.
For EC50s determination results were calculated by standard means using a 4 parameter logistic model (sigmoidal dose response model).

T1 sequence (P01375 77-233 limits assumed): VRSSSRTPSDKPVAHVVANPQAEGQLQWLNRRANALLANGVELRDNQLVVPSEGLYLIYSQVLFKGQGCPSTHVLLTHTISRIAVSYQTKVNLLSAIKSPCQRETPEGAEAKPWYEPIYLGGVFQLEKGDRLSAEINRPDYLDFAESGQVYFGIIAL
T2 sequence (P01375 77-233 limits assumed): as above

O=C1CCCN1c1cccc(OCc2nc3ccc(-c4ccc(=O)[nH]c4)cc3n2Cc2ccccc2OC(F)F)c1 [Compound (3), 5-(1-[2-(Difluoromethoxy)benzyl]-2-{[3-(2-oxo-pyrrolidin-1-yl)phenoxy]methyl}-1H-benzimidazol-6-yl)-pyridin-2(1H)-one]
IC50 [1]: 21 nM | IC50 [2]: 20 nM | Kd ([3]; calculated from koff/kon, read-out: dissociation constant (KD)): 7 nM | kon ([3]; immobilised TNFα, HBS-P with 5% DMSO): 5470 M⁻¹ s⁻¹ | koff ([3]; immobilised TNFα, HBS-P with 5% DMSO, read-out: dissociation rate constant (koff)): 4.07e-05 s⁻¹

Cc1cc2occ(CN(C)CCN(C)Cc3cn(-c4cccc(C(F)(F)F)c4)c4ccccc34)c(=O)c2cc1C [SPD-304, reference compound]
% inhibition of TNFα binding to the TNF receptor [4]: +80%
